This note sets out measurements from US12636316B2, “Pharmaceutical composition for preventing or treating myositis, comprising isolated mitochondria as active ingredient” (PAEAN BIOTECHNOLOGY INC., priority 2019, dated 2026).

The nature of this experiment: Membrane potential of mitochondria (JC-1 dye). The note with it: 5 μg mitochondria mixed in 50 μL CCCP, room temperature 10 minutes, JC-1 2 μM. In kind it is biochemical. The method, then: In order to measure the membrane potential of the mitochondria isolated in Preparation Example 1, the mitochondrial protein concentration of the isolated mitochondria was quantified through the BCA to prepare 5 μg of mitochondria. The membrane potential of the mitochondria was measured using a JC-1 (molecular probes, cat no.1743159) dye.
Specifically, as an experimental group, 5 μg of the prepared mitochondria was mixed in 50 μL of PBS and then dispensed in a 96-well plate. In addition, as a control group, 50 μL of PBS without mitochondria was dispensed in a 96-well plate. In addition, as an additional experimental group, 5 μg of mitochondria was mixed in 50 μL of CCCP (R&D systems, CAS 555-60-2), then reacted at room temperature for 10 minutes, and then dispensed in a 96-well plate. In this case, CCCP is an ion transporter of mitochondria and depolarizes the membrane potential of mitochondria, thereby inhibiting the function of mitochondria.
Thereafter, each well was treated and reacted with the JC-1 dye so that the concentration was 2 μM, and then the absorbance was measured using a fluorescence microplate reader. […] The membrane potential of mitochondria was analyzed by calculating the ratio of […].

In the case of `N#CC(C#N)=NNc1cccc(Cl)c1` [CCCP], the membrane potential activity entry is listed as “low membrane potential activity”.
